Assay results as given in ChEMBL document CHEMBL1153695, “Asymmetrical diaromatic guanidinium/2-aminoimidazolinium derivatives: synthesis and DNA affinity” (J Med Chem, 2009).

Experiments:
Format in all cases: nucleic-acid assay
Nucleic Acid [1] = assay: Binding affinity to Poly(dA.dT)2 DNA in phosphate buffer assessed as change in melting temperature
Nucleic Acid [2] = assay: Binding affinity to Salmon sperm DNA in phosphate buffer assessed as change in melting temperature; details: Oncorhynchus
Nucleic Acid [3] = assay: Binding affinity to Poly(dA).Poly(dT) DNA in MES buffer assessed as change in melting temperature

ΔTm (Nucleic Acid [1]) [°C]	ΔTm (Nucleic Acid [2]) [°C]	ΔTm (Nucleic Acid [3]) [°C]	Compound
15	8	32	N=C(N)Nc1ccc(C(=O)c2ccc(N=C3NCCN3)cc2)cc1
	2		N=C(N)Nc1ccc(Nc2ccc(N)cc2)cc1
	1		Nc1ccc(N2CCN(c3ccc(N=C4NCCN4)cc3)CC2)cc1
	3		Nc1ccc(Cc2ccc(N=C3NCCN3)cc2)cc1
	2		Nc1ccc(Nc2ccc(N=C3NCCN3)cc2)cc1
	0		Nc1ccc(Sc2ccc(N=C3NCCN3)cc2)cc1
	3		N=C(N)Nc1ccc(Cc2ccc(N)cc2)cc1
10	7	25.3	N=C(N)Nc1ccc(Oc2ccc(N=C3NCCN3)cc2)cc1
9	7	23	N=C(N)Nc1ccc(Sc2ccc(N=C3NCCN3)cc2)cc1
	4		N=C(N)Oc1ccc(Oc2ccc(O)cc2)cc1
	2		N=C(N)Nc1ccc(Oc2ccc(N)cc2)cc1
	0		N=C(N)Nc1ccc(CCc2ccc(N)cc2)cc1
16	8	29	N=C(N)Nc1ccc(CCc2ccc(N=C3NCCN3)cc2)cc1
14	11.5	30	N=C(N)Nc1ccc(NC(=O)Nc2ccc(N=C3NCCN3)cc2)cc1
	0		N=C(N)Nc1ccc(C(=O)c2ccc(N)cc2)cc1
	6		N=C(N)Oc1ccc(Oc2ccc(OC(=N)N)cc2)cc1
	4		Nc1ccc(NC(=O)Nc2ccc(N=C3NCCN3)cc2)cc1
15	9	31.1	N=C(N)Nc1ccc(N2CCN(c3ccc(N=C4NCCN4)cc3)CC2)cc1
	0		Nc1ccc(Oc2ccc(N=C3NCCN3)cc2)cc1
	2		N=C(N)Nc1ccc(N2CCN(c3ccc(N)cc3)CC2)cc1
	5		N=C(N)Oc1ccc(Sc2ccc(OC(=N)N)cc2)cc1
	4		N=C(N)Oc1ccc(Cc2ccc(OC(=N)N)cc2)cc1
	2		N=C(N)Oc1ccc(Sc2ccc(O)cc2)cc1
17.5	12	35.1	N=C(N)Nc1ccc(Nc2ccc(N=C3NCCN3)cc2)cc1
6	6	17.2	N=C(N)Nc1ccc(Cc2ccc(N=C3NCCN3)cc2)cc1
	0		Nc1ccc(CCc2ccc(N=C3NCCN3)cc2)cc1
	2		N=C(N)Nc1ccc(Sc2ccc(N)cc2)cc1
	2		N=C(N)Nc1ccc(NC(=O)Nc2ccc(N)cc2)cc1
	2		N=C(N)Oc1ccc(Cc2ccc(O)cc2)cc1

Compound	ΔTm (Nucleic Acid [1]) [°C]	ΔTm (Nucleic Acid [2]) [°C]	ΔTm (Nucleic Acid [3]) [°C]
Cn1cc(NC(=O)c2cc(NC(=O)CNC(=N)N)cn2C)cc1C(=O)NCCC(=N)N	39		
